Columns and labels:
[1] = Diffusion through a lipoidal membrane barrier (trans-cellular absorption); assay type: physicochemical; settings: laceryl alcohol/caprytic acid lipid membrane
Method: The diffusion rates of the Compound of Example 3 and the active compound, 4-[3-[2-dimethylamino)ethyl]-1H-indol-5-ylmethyl]-2-oxazolidinone, through a lipoidal membrane barrier (laceryl alcohol/caprytic acid lipid membrane) were determined and compared.

[2] = Plasma concentrations in rats after intravenous administration; assay type: in vivo, rat
Method: (§1) Investigations were carried out in rats to determine whether 4-[1-Acetyl-3-[2-(dimethylamino)ethyl]indol-5-ylmethyl]oxazolidin-2-one acetate (compound of Example 6) acts as a prodrug for the pharmacologically active compound 4-[3-[2-(dimethylamino)ethyl]-1H-indol-5-ylmethyl]-2-oxazolidinone described in EP-A-0486666. The compound of Example 6 was incubated with rat plasma at a concentration of approx. 0.2 μg/ml for up to 4 h. At selected times the incubations were terminated by addition of acetone and the concentrations of both 4-[1-Acetyl-3-[2-(dimethylamino)ethyl]indol-5-ylmethyl]oxazolidin-2-one acetate and its breakdown product 4-[3-[2-(dimethylamino)ethyl]-1H-indol-5-ylmethyl]-2-oxazolidinone were determined by HPLC assay. In addition rats were administered 4-[1-Acetyl-3-[2-(dimethylamino)ethyl]indol-5-ylmethyl]oxazolidin-2-one acetate intravenously at a dose of 4 mg/kg and the plasma and brain concentrations of this compound and the breakdown product, 4-[3-[2-(Dimethylamino)ethyl]-1H-indol-5-ylmethyl]- 2-oxazolidinone were determined up to 8 h after administration.
After intravenous administration, the peak plasma concentration (Cmax) of 4-[1-acetyl-3-[2-(dimethylamino)ethyl]indol-5-ylmethyl]oxazolidin-2-one acetate was approx 0.2 μg/ml (5 min) and this parent compound was detectable up to 1 h post dose (limit of detection 0.02 μg/ml); the plasma half-life was approximately 0.2 h. The breakdown product, 4-[3-[2-(dimethylamino) ethyl]-1H-indol-5-ylmethyl]-2-oxazolidinone was also detected in the plasma (Cmax 0.3 μg/ml, 5 min) up to 4 h after dosage.

[3] = Incubation with rat hepatocytes (conversion to active compound); assay type: in vitro ADME
Method: The compound of Example 3 was incubated with rat hepalocytes to determine whether the active compound, 4-[3-[2-(dimethylamino)ethyl]-1H-indol-5-ylmethyl]-2-oxazolidinone, is a main product of its metabolism.

[4] = Incubation of compound with rat plasma, HPLC assay of parent and breakdown product; assay type: in vitro ADME
Method: as §1
4-[1-Acetyl-3-[2-(dimethylamino)ethyl]indol-5-ylmethyl]oxazolidin-2-one acetate was converted to 4-[3-[2-(Dimethylamino)ethyl]-1H-indol-5-ylmethyl]-2-oxazolidinone in rat plasma, with a half-life of approximately 3 h. After 4 h incubation only 30% of the parent compound of example 6 remained.

Row | Structure (SMILES) | Diffusion Rate [1] | breakdown product detected in plasma up to, after dosage ([2]; rat, in vivo, iv, 4 mg/kg) | melting point | conversion into the active compound [3] | compound remaining ([3]; after 30 minutes incubation) | half-life at 0.2 μg/ml ([4]; rat plasma incubation, approx. 0.2 μg/ml, up to 4 h, read-out: half-life of conversion to 4-[3-[2-(Dimethylamino)ethyl]-1H-indol-5-ylmethyl]-2-oxazolidinone in rat plasma (converted)) | parent compound remaining ([4]; rat plasma, after 4 h incubation) | half-life ([2]; in vivo, rat, intravenous, 4 mg/kg) | Cmax ([2]; in vivo, rat, intravenous, 4 mg/kg, read-out: peak plasma concentration (Cmax) of parent compound) | parent compound detectable in plasma up to, post dose ([2]; rat, intravenous, 4 mg/kg, limit of detection 0.02 μg/ml) | conversion into active compound in rats ([2]; rats, plasma incubation and intravenous experiments)
1 | CN(C)CCc1c[nH]c2ccc(CC3COC(=O)N3)cc12 (stereo not drawn) [Active compound, 4-[3-[2-(dimethylamino)ethyl]-1H-indol-5-ylmethyl]-2-oxazolidinone, reference compound] | 0.68 cm/min/1000 | up to 4 h | – | – | – | – | – | – | – | – | –
2 | CC(=O)O.Cc1ccccc1C(=O)n1cc(CCN(C)C)c2cc(CC3COC(=O)N3)ccc21 (stereo not drawn) [Example 3, 4-[1-(2-toluoyl)-3-[2-(dimethylamino)ethyl]indol-5-ylmethyl]oxazolidin-2-one acetate] | 3.88 cm/min/1000 | – | 51.5 to 54 °C | extensively and rapidly converted into the active compound | no compound of Example 3 remained | – | – | – | – | – | –
3 | CC(=O)O.CC(=O)n1cc(CCN(C)C)c2cc(CC3COC(=O)N3)ccc21 (stereo not drawn) [Example 6, 4-[1-Acetyl-3-[2-(dimethylamino)ethyl]indol-5-ylmethyl]oxazolidin-2-one acetate] | – | – | – | – | – | ~3 h | 30% | ~0.2 h | ~200 ng/mL | up to 1 h | is converted into 4-[3-[2-(dimethylamino)ethyl]-1H-indol-5-ylmethyl]-2-oxazolidinone in rats
